Where a name gives a salt, the structure may show the parent alone. Active and inactive are the calls of the source.
Experiments:
Leucine aminopeptidase = target: T1, Leucine aminopeptidase (Plasmodium falciparum 3D7, UniProt Q8IL11); assay: P. falciparum M17LAP inhibitors, primary screen, biochemical, fluorogenic H-Leu-NHMec substrate, 1536-well (AID 1619); type: functional
T1 sequence (Q8IL11 whole entry): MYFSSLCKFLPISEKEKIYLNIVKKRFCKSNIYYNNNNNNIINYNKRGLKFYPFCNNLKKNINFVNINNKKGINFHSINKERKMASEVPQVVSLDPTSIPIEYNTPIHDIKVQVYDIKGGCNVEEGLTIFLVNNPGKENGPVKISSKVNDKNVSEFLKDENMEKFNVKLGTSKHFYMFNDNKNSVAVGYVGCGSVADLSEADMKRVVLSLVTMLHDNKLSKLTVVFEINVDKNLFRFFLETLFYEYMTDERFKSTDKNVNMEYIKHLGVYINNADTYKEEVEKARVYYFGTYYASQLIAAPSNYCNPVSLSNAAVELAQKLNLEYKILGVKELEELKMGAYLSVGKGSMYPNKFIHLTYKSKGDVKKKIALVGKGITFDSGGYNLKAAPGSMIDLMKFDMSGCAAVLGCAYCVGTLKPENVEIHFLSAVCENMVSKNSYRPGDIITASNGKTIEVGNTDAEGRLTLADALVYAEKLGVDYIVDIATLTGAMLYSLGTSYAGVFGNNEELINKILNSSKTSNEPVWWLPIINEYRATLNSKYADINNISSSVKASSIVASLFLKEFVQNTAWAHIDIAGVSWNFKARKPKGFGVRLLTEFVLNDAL

[1] = Luminescence-based cell-based high throughput dose response assay to identify activators of the DAF-12 from the parasite S. stercoralis (ssDAF-12).; type: functional
[2] = target: T2, Oxysterols receptor LXR-beta (Homo sapiens, UniProt P55055); assay: LXR agonists, Gal4 luciferase reporter, dose response, counter-screen for ssDAF-12 agonist project, cell-based, luminescence, HEK293, S. stercoralis campaign (AID 720737); type: functional; details: read-out: IC50 (the source's name)
T2 sequence (P55055 whole entry): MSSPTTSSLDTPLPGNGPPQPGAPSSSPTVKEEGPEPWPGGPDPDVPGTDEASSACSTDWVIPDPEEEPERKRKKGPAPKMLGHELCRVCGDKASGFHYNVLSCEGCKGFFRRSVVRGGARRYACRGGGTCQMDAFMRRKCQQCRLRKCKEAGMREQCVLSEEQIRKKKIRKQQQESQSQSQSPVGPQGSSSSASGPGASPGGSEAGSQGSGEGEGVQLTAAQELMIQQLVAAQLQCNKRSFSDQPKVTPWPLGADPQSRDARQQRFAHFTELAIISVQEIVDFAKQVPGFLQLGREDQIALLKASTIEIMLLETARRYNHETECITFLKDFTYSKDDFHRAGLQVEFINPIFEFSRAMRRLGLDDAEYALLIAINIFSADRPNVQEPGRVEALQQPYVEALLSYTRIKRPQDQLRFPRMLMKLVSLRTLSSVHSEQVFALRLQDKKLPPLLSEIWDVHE

[3] = viability of uninfected HEp-2 cells – cell-based, HTS, cytotoxicity control for RSV inhibitor project, dose response (AID 2410); type: functional; details: human respiratory syncytial virus
Vero [4] = assay: cells; type: functional, cell-based; details: Chlorocebus sabaeus
Vero [5] = assay: cells; type: functional; details: Chlorocebus sabaeus
[6] = HPDE-C7 pancreatic duct cell viability loss – fluorescence, HTS (AID 430); type: functional, cell-based; details: Homo sapiens
[7] = viability loss of HPDE-C7K cells – cell-based, fluorescence, HTS, primary screen (AID 431); type: functional; details: Homo sapiens
[8] = Luminescence Cell-Based Dose Retest to Confirm Inhibitors of Cancer Stem Cells. [Related pubchem assays (depositor defined):AID2717, AID2721]; type: functional; details: Homo sapiens
[9] = tested on: Streptococcus sp. 'group A'; assay: Streptococcus pyogenes SK(-)GAS viability under kanamycin – luminescence, BacTiterGlo, confirmation, counter-screen for streptokinase expression inhibitor project, dose response (AID 1900); type: functional, organism-based
Streptokinase A = target: T3, Streptokinase A (Streptococcus pyogenes serotype M1, UniProt P10520); assay: viability-normalized secreted streptokinase activity reduction – plasminogen activation absorbance, OD405, dose response (AID 1914); type: functional, Streptococcus pyogenes M1 GAS;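 also: secreted streptokinase activity via plasminogen activation per viability signal from cell pellet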
T3 sequence (P10520 whole entry): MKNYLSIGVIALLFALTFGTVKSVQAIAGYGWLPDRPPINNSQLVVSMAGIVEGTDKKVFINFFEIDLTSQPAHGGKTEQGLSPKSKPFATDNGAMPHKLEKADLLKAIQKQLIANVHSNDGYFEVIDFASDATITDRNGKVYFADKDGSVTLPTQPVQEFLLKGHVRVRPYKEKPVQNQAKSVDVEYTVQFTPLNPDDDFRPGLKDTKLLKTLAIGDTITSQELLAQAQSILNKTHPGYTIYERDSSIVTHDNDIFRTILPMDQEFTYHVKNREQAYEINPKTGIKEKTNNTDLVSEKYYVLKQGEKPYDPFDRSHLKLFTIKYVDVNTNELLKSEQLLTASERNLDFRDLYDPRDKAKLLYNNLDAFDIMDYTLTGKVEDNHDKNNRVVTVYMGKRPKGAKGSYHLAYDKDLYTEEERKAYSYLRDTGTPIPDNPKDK

Streptococcus = assay: GAS UMAA2166 growth inhibition – luminescence, BacTiterGlo, counter-screen for streptokinase expression inhibitor project, dose response (AID 1915); type: functional, organism-based;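 also: potency for reduction of bacterial viability or growth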
[10] = P. falciparum Dd2 growth inhibitors, dose response, SYBR Green, cherry-picked samples (AID 1159567); type: functional, cell-based
[11] = target: Glyceraldehyde-3-phosphate dehydrogenase (Homo sapiens, UniProt P04406)
[12] = luciferase reporter signal suppression in cells – H4 neuroglioma cells, luminescence, dose response (AID 1990); type: functional, cell-based
[13] = Luminescence Cell-Based Dose Response HTS to Identify Inhibitors of 5'UTR Stem-Loop Driven Prion Protein mRNA Translation in H4 Neuroglioblastoma Cells. [Related pubchem assays: 1827 (Project Summary), 1813 (Primary HTS)]; type: functional
[14] = alpha-synuclein stem-loop luciferase translation blockers – H4 neuroglioma cells, luminescence, confirmation (AID 1988); type: functional, cell-based
[15] = viability of PTEN-deleted HCT116 cells – cell-based, HCT116 PTEN knockout, dose response (AID 1047); type: functional;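 also: HCT116 colon tumor cells with PTEN knocked out; cells exposed to compound for 60 hours before readout; potency for loss of cell viability measured by luminescence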
[16] = viability of HCT116 lacking mutant beta-catenin – cell-based, human colon tumor, dose response (AID 1045); type: functional;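 also: HCT116 colon tumor cells with beta catenin knocked out; cells exposed to compound for 60 hours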
[17] = target: T4, DNA repair protein RAD52 homolog (Homo sapiens, UniProt P43351); type: functional, biochemical
T4 sequence (P43351 whole entry): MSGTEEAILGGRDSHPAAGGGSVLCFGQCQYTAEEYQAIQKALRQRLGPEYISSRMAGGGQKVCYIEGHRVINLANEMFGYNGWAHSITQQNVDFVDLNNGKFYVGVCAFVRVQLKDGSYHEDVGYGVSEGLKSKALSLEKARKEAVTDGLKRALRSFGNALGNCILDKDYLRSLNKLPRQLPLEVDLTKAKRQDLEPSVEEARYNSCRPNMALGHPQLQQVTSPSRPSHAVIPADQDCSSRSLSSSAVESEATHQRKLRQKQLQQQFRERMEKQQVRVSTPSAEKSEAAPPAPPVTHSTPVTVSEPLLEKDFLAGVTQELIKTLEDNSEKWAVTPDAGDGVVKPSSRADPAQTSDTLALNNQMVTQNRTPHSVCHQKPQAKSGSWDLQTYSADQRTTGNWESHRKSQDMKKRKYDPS

[18] = A cytotoxicity screen of small molecule inhibitors of the PhoP region in Salmonella typhi identified in the primary screen. [Related pubchem assays: 1850, 1864, 1985 ]; type: functional
Cytochrome P450 2C19 = Cytochrome P450 2C19 (Homo sapiens, UniProt P33261); assay: Cytochrome panel assay with activity outcomes. Panel member name: p450-cyp2c19 Compounds with AC50 equal or less than 10 uM are considered active; type: functional; details: read-out: AC50
Cytochrome P450 2D6 = Cytochrome P450 2D6 (Homo sapiens, UniProt P10635);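 also: CYP2D6 member of a cytochrome P450 panel assay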
[19] = Luminescence Cell-Based Dose Response HTS to Identify Activators of Luciferase Translation or Activity in H4 […] Cells. [Related pubchem assays: 1829 (Project Summary), 1814 (Primary HTS)]; type: functional
H4 = assay: Luminescence Cell-Based Dose Response HTS to Identify Activators of 5'UTR Stem-Loop Driven Prion Protein mRNA Translation in H4 Neuroglioblastoma Cells. [Related pubchem assays: 1829 (Project Summary), 1814 (Primary HTS)]; type: functional; details: Homo sapiens
[20] = Trypanosoma cruzi growth suppression in host cells – NIH3T3 host cells, beta-gal luminescence, confirmation (AID 2044); type: functional, cell-based;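 also: intracellular parasites grown in NIH/3T3 mouse fibroblasts as host cells; luminescent beta-galactosidase reporter signal from transgenic T. cruzi replicating inside host cells; inhibitors lower the luminescence signal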
[21] = NIH3T3 cell viability loss – ATP luminescence, mouse fibroblasts, counter-screen, dose response (AID 2010); type: functional, cell-based;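 also: cells exposed to compound for about 90 hours before reading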

Sequence of Cytochrome P450 2C19 (P33261 whole entry): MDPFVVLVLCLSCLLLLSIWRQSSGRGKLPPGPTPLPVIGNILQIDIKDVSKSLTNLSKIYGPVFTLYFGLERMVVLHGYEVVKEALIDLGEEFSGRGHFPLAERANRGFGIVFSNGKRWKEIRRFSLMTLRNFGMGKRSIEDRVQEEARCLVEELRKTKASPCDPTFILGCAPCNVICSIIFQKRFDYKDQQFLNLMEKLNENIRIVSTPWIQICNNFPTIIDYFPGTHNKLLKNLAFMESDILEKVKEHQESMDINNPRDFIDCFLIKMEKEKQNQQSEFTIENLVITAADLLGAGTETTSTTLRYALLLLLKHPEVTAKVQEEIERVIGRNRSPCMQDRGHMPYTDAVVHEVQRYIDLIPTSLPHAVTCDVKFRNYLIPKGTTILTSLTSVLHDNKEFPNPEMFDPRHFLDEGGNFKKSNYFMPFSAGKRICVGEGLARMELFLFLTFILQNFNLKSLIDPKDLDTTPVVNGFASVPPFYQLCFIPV
Sequence of Cytochrome P450 2D6 (P10635 whole entry): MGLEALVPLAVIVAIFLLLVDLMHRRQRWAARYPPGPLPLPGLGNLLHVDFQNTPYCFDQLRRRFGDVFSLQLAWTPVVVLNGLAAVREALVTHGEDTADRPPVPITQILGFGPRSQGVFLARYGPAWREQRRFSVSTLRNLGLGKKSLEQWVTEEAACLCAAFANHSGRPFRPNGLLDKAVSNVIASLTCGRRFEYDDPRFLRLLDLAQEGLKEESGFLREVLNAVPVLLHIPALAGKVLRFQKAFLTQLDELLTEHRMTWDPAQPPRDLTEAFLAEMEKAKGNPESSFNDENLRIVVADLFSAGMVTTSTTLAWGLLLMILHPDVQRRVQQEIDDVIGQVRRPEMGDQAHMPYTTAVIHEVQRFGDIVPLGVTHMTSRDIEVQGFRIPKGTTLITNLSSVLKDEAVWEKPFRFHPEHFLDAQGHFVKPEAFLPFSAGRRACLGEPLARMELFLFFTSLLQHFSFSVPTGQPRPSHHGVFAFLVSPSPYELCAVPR
Sequence of Glyceraldehyde-3-phosphate dehydrogenase (P04406 whole entry): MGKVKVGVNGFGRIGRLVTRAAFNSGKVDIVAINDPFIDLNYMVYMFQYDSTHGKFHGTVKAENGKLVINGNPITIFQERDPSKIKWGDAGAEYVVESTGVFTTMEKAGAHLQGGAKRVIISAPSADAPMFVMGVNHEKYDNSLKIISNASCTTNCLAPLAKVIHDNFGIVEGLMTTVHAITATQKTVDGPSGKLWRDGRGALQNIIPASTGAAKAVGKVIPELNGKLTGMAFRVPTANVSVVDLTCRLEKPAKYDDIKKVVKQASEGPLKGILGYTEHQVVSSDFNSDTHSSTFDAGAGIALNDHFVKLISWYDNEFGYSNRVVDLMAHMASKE

Oc1cc(O)c2sc3nc(-c4cccnc4)cc(C(F)(F)F)c3c2n1
IC50 (Leucine aminopeptidase): 58.2 µM (active)

CCc1ccc2cc3c(cc2n1)C(=O)c1ccccc1-3
IC50 [1]: > 67.5 µM (inactive) | EC50 [2]: > 67.5 µM (inactive)

CC(=O)/C(C#N)=C1\NC(=O)C(Cc2ccccc2C)S1 (centres undefined)
CC50 [3]: 5.95 µM (active) | IC50 (Vero [4]): 5.5 µM (active) | CC50 (Vero [5]): > 25 µM (active) | IC50 (cells): 2.54 µM (active)

N#Cc1cc2ccccc2nc1SCc1ccccn1
IC50 [1]: > 67.5 µM (inactive) | EC50 [2]: > 67.5 µM (inactive)

CCOc1ccc(N(Cc2cc3cc(OC)ccc3nc2O)S(C)(=O)=O)cc1
EC50 [6]: > 20 µM (not active) | EC50 [7]: > 20 µM (not active)

N#CC1=C(SCC(=O)c2ccc(Cl)cc2)N=C2CCCC(O)=C2C1c1ccco1 (centres undefined)
EC50 [6]: 7.64 µM (active) | EC50 [7]: 7.7 µM (active) | AC50 [8]: 2.64 µM (active)

CC(=O)/C(C#N)=C1\NC(=O)C(Cc2ccccc2Cl)S1 (centres undefined)
IC50 (Leucine aminopeptidase): 26.6 µM (active) | IC50 (Vero [4]): 2.83 µM (active) | CC50 (Vero [5]): 18.9 µM (active)

O=C(Cc1cccs1)NNC(=S)NC(=O)c1ccccc1
IC50 (Leucine aminopeptidase): 30 µM (active) | EC50 [9]: 4.36 µM (active) | EC50 (Streptokinase A): > 150 µM (not active) | EC50 (Streptococcus): 16.9 µM (active)

C[C@@H]1CN([C@@H](C)CO)C(=O)c2c(c3ccccc3n2C)-c2ccccc2CO[C@@H]1CN(C)C(=O)[C@H](C)c1ccccc1
AC50 [10]: 3.29 µM (active)

O=C(O)c1cc(N2C(=O)C3C4c5ccccc5C(c5ccccc54)C3C2=O)ccc1O (centres undefined)
IC50 [11]: > 100 µM (not active)

Cc1c(NC(=O)CN2C(=O)NC3(CCCCC3C)C2=O)cccc1[N+](=O)[O-] (centres undefined)
IC50 (cells): 11.6 µM (active)

COc1ccc(C(=O)N/C(=C/c2cccs2)c2nc3ccccc3[nH]2)cc1OC
IC50 (cells): 22.6 µM (active)

CSc1ccc2c(c1)N(CCC1CCCCN1C)c1ccccc1S2 (centres undefined) [THIORIDAZINE HYDROCHLORIDE]
EC50 [12]: > 120 µM (not active) | EC50 [13]: > 60 µM (not active) | EC50 [14]: > 120 µM (not active) | EC50 [6]: 8.18 µM (active) | EC50 [7]: 3.43 µM (active) | EC50 [15]: 11.1 µM (active) | EC50 [16]: 9.28 µM (active) | AC50 [17]: 13.7 µM (active)

Cn1c(C(=O)NCc2ccccc2)cc2oc3ccccc3c21
CC50 [3]: 28.9 µM (active) | IC50 (Vero [4]): 1.87 µM (active) | CC50 (Vero [5]): > 25 µM (active) | IC50 (cells): 7.04 µM (active)

COc1ccc(N(CC(=O)N2c3ccccc3CC2C)S(=O)(=O)c2c(C)noc2C)cc1 (centres undefined)
EC50 [18]: > 50 µM (active)

COc1cccc(NC(=O)N2CCCC(C(=O)Nc3ccccc3OC)C2)c1 (centres undefined)
EC50 [18]: > 50 µM (active)

Cc1cc(C)c(CSc2ncnc3[nH]cnc23)c(C)c1
EC50 [18]: > 50 µM (active)

O=C(C1CCOCC1)N1[C@H](CO)[C@@H](c2ccccc2)C12CN(Cc1cccc(Cl)c1)C2
AC50 [10]: 5.41 µM (active)

CCCCC[C@H](O)/C=C/[C@H]1C=CC(=O)[C@@H]1C/C=C\CCCC(=O)O [PROSTAGLANDIN A2]
EC50 [6]: > 20 µM (not active) | EC50 [7]: > 20 µM (not active)

CCS(=O)(=O)N1CCCCN2[C@H](CO)[C@@H](c3ccc(-c4cccc(C#N)c4)cc3)[C@@H]2C1
AC50 [10]: 9.04 µM (active)

CCc1nnc(NS(=O)(=O)c2ccc(/N=C/c3c(C)nn(-c4ccc(C)cc4)c3O)cc2)s1
IC50 (Leucine aminopeptidase): 8.11 µM (active) | AC50 (Cytochrome P450 2C19): 5.01 µM (inconclusive) | AC50 (Cytochrome P450 2D6): 5.62 µM (inconclusive)

CN1c2ccsc2/C(=N/Nc2ccc(F)cc2)CS1(=O)=O
EC50 [19]: 54.8 µM (active) | EC50 (H4): 49.1 µM (active) | EC50 [20]: 3.22 µM (active) | EC50 [21]: > 60 µM (not active) | IC50 [1]: > 67.5 µM (inactive) | EC50 [2]: > 67.5 µM (inactive)

CSc1ncccc1C(=O)Nc1nc(C(C)(C)C)cs1
CC50 [3]: 49.6 µM (active) | IC50 (cells): 4.75 µM (active)

O=C(CCNC(=O)c1ccccc1)N=Nc1c(O)[nH]c2ccccc12
IC50 [1]: > 67.5 µM (inactive) | EC50 [2]: > 67.5 µM (inactive)

COC(=O)c1ccccc1NC(=O)c1ccnn1C
IC50 [1]: > 67.5 µM (inactive) | EC50 [2]: > 67.5 µM (inactive)

From ChEMBL document CHEMBL1201862, “PubChem BioAssay data set” (2004)
